Values of other authors as cited in patent US7183112B2, “Uses for anti-malarial therapeutic agents” (APT Pharmaceuticals, LLC, priority 1999, dated 2007).
Structures can show the parent of a compound that is named as a salt. Where two headings read alike, the source gives them in different places.

Columns and labels:
allergic asthma = details: Fahy et al. 1999, cited from earlier work
[1] = cited from earlier work

Compound | efficacy for treating allergic asthma (allergic asthma; inhalation) | efficacy for treating allergic asthma (allergic asthma; intravenous administration) | solubility in water [1]
Anti IgE(E25): Anti IgE(E25), given intravenously or by inhalation for allergic asthma (Fahy et al.) | virtually ineffective | effective | –
CCN(CCO)CCCC(C)Nc1ccnc2cc(Cl)ccc12 (stereo not drawn) [hydroxychloroquine sulfate] | – | – | readily soluble
